Measurements reported in US11654143B2, “Therapeutic combinations of a BTK inhibitor, a PI3K inhibitor, a JAK-2 inhibitor, and/or a BCL-2 inhibitor” (Acerta Pharma B.V., priority 2014, dated 2023).

How the values were obtained:
[1] = tested on: human platelet-mediated thrombosis; experiment: in vivo human thrombus formation in the VWF HA1 mice model; conditions: human platelets preincubated with BTK inhibitor, laser-induced injury
[2] = within the tested dose range; cited from earlier work
B cell receptor = experiment: whole blood anti-IgD stimulated CD69 on CD19+ B cells; format: cell-based; conditions: whole blood from four healthy donors, 2 hours compound, anti-human IgD 18 hours
Method: Blood from four healthy donors was incubated for 2 hours with the compounds shown over a concentration range, and then stimulated with anti-human IgD [10 μg/mL] for 18 hours. The mean fluorescent intensity (MFI) of CD69 (and CD86, data not shown) on gated CD19+ B cells was measured by flow cytometry.

[3] = tested on: GPVI platelet aggregation; experiment: GPVI platelet aggregation studies; format: cell-based; conditions: FIG. 122
CCL2 [4] = experiment: CCL2 levels in treated patients; format: in vivo, human; conditions: FIG. 146
CXCL12 [5] = experiment: plasma chemokines in treated CLL patients; format: in vivo, human
BTK [6] = molecular target: T1, BTK (Mus musculus, UniProt P35991); experiment: molecular probe assay, BTK occupancy in MDSCs from tumor bearing PDA mice; format: in vivo; conditions: 15 mg/kg BID, Day 8, 4 hours post dose, granulocytic and monocytic MDSC (N=5)
T1 construct: MDSCs were purified from tumor bearing PDA mice; from tissue; host or cells: granulocytic and monocytic MDSCs purified from tumour-bearing PDA mice
Description: A molecular probe assay was used to calculate the percent irreversible occupancy of total BTK.

[7] = glutathione binding and depletion in vitro; format: in vitro ADME
[8] = study of respiratory function; conditions: rats, doses through 300 mg/kg
[9] = cardiovascular function study in awake telemeterized beagle dogs; conditions: male beagle dogs, single doses through 30 mg/kg
CYP enzymes = experiment: nonclinical CYP interaction studies; format: in vitro ADME
CLL [10] = experiment: clinical study of Formula (XVIII) in relapsed/refractory CLL
Description: (§1) This study is a multicenter, open-label, nonrandomized, sequential group, dose escalation study. The following dose cohorts will be evaluated:
(§2) Each cohort will be enrolled sequentially with 6 subjects per cohort. If ≤1 dose-limiting toxicity (DLT) is observed in the cohort during Cycle 1, escalation to the next cohort will proceed. Subjects may be enrolled in the next cohort if 4 of the 6 subjects enrolled in the cohort completed Cycle 1 without experiencing a DLT, while the remaining 2 subjects are completing evaluation. If ≥2 DLTs are observed during Cycle 1, dosing at that dose and higher will be suspended and the MTD will be established as the previous cohort. […] Dose escalation will end when either the MTD is achieved or at 3 dose levels above full BTK occupancy, whichever occurs first. […] Should escalation to Cohort 6 be necessary, the dose will be determined based on the aggregate data from Cohorts 1 to 5, which includes safety, efficacy, and PK/PD results. The dose for Cohort 6 will not exceed 900 mg/day.
(§3) Dose-limiting toxicity is defined as any of the following events (if not related to disease progression): (1) any Grade ≥3 non-hematologic toxicity (except alopecia) persisting despite receipt of a single course of standard outpatient symptomatic therapy (e.g., Grade 3 diarrhea that responds to a single, therapeutic dose of Imodium® would not be considered a DLT); (2) grade ≥3 prolongation of the corrected QT interval (QTc), as determined by a central ECG laboratory overread; (3) grade 4 neutropenia (absolute neutrophil count [ANC]<500/μL) lasting >7 days after discontinuation of therapy without growth factors or lasting >5 days after discontinuation of therapy while on growth factors (i.e., Grade 4 neutropenia not lasting as long as specified will not be considered a DLT), (4) grade 4 thrombocytopenia (platelet count <20,000/μL) lasting >7 days after discontinuation of therapy or requiring transfusion (i.e., Grade 4 thrombocytopenia not lasting as long as specified will not be considered a DLT), and (5) dosing delay due to toxicity for >7 consecutive days.
(§4) The study scheme is a sequential cohort escalation. Each cohort consists of six subjects. The sample size of the study is 24 to 36 subjects, depending on dose escalation into subsequent cohorts. […] The dose level for Cohort 6 will be determined based on the safety and efficacy of Cohorts 1 to 5, and will not exceed 900 mg/day. Escalation will end with either the MTD cohort or three levels above full BTK occupancy, whichever is observed first. An additional arm of the study will explore 100 mg BID dosing.
(§5) The route of administration is oral (per os, or PO). The dose regimen is once daily or twice daily, as defined by the cohort, on an empty stomach (defined as no food 2 hours before and 30 minutes after dosing).

[11] = preliminary brain PK experiments, oral gavage; format: in vivo, Sprague-Dawley rats; conditions: 5 or 30 mg/kg/day oral
Description: Two vehicle treated rats were sacrificed on each sampling day for comparison.

[12] = functional observation battery (GLP safety pharmacology); conditions: rats, doses through 300 mg/kg
hepatocytes = experiment: in vitro metabolism in hepatocytes with 14C-labeled drug; format: in vitro ADME, mouse, rat, dog, rabbit, monkey, and human
CLL [13] = experiment: apoptosis in treated CLL patients; format: in vivo, human; conditions: FIG. 144
EGFR = EGFR (Homo sapiens, UniProt P00533); experiment: EGF-induced EGFR phosphorylation in A431 cells (phosphoflow); conditions: 10 μM, A431 human epidermoid cancer cell line
CCL2 [14] = experiment: plasma chemokines in treated CLL patients; format: in vivo, human
NSCLC (KrasLA2) tumors = experiment: genetic tumor model of NSCLC (KrasLA2); format: in vivo, mice; conditions: 15 mg/kg
Description: The model is designed to have sporadic expression in single cells of G12D mutant Kras off its own promoter triggered by spontaneous intrachromosomal recombination. Johnson, et al. Nature 2001, 410, 1111-16. While the mutant Kras protein is expressed in a few cells in all tissues, tumor development is seen only in the lung at high penetrance.

canine B cell lymphoma = experiment: veterinary clinical trial in companion dogs with B cell lymphoma; format: in vivo
Method: Enrollment has completed for both arms.
Intra-subject dose escalation was allowed. Six of the 11 dogs that initiated at 2.5 or 5 mg/kg once daily were escalated and completed the study with dosages of 10 mg/kg twice daily. Among all the dose cohorts, 8 dogs had shrinkage of target lesions >20%; the best tumor responses were between 45-49% reduction in the sum of target lesions in two dogs. […] CR were defined as disappearance of all evidence of disease per evaluator judgment, and absence of new lesions. Vali, et al., Vet. Comp. Oncol. 2010, 8, 28-37.
Of these, 7 dogs had shrinkage of target lesions >20%, providing evidence of biological activity for the combination; four of these dogs achieved a PR. […] The initial reductions in the sum of target lesions continued to deepen during the course of therapy in 7 of the 10 dogs.

[15] = tested on: 80 known pharmacologic targets such as G-protein-coupled receptors, nuclear receptors, proteases, and ion channels; experiment: binding assays with 80 known pharmacologic targets; conditions: screened at 10 μM
human platelets = experiment: GPVI (convulxin-induced) platelet aggregation; format: cell-based; conditions: CVX-induced
Method: GPVI platelet aggregation was measured for Formula (XVIII) and Formula (XX-A) (ibrutinib). Blood was obtained from untreated humans, and platelets were purified from […] by centrifugation. Cells were resuspended to a final concentration of 350,000/μL in buffer containing 145 mmol/L NaCl, 10 mmol/L HEPES, 0.5 mmol/L Na2HPO4, 5 mmol/L KCl, 2 mmol/L MgCl2, 1 mmol/L CaCl2), and 0.1% glucose, at pH 7.4. Stock solutions of […] were prepared on the day of experimentation and added to platelet suspensions 5 minutes (37° C., 1200 rpm) before the induction of aggregation. Aggregation was assessed with a Chronolog Lumi-Aggregometer (model 540 VS; Chronolog, Havertown, Pa.) and permitted to proceed for 6 minutes after the addition of agonist. The results are reported as maximum percent change in light transmittance from baseline with platelet buffer used as a reference.
In FIG. 123, the results of CVX-induced (250 ng/mL) human platelet aggregation results before and 15 minutes after administration of the BTK inhibitors to 6 healthy individuals are shown.

CXCL12 [16] = experiment: CXCL12 levels in treated patients; format: in vivo, human; conditions: FIG. 145
CLL [17] = experiment: clinical study in CLL (ALC and SPD); format: in vivo, human; conditions: CLL patients, FIG. 125
Description: J. Med. 2013, 369, 32-42.

[18] = tested on: expression of activation markers CD69 and CD86; experiment: in vivo potency: mice gavaged, BCR stimulated with IgM, CD69 and CD86 monitored by flow cytometry; conditions: gavage, 3 h post-dose, versus ibrutinib, FIG. 124
Method: Mice were gavaged at increasing drug concentration and sacrificed at one time point (3 h post-dose). BCR is stimulated with IgM and the expression of activation markers CD69 and CD86 are monitored by flow cytometry to determine EC50's.

BTK [19] = molecular target: BTK (Homo sapiens, UniProt Q06187); experiment: BTK target occupancy in relapsed/refractory CLL patients; conditions: at lower dosage versus ibrutinib, FIG. 131
CLL [20] = conditions: human, in vivo
Description: as §1, §2, §3, §4, §5

[21] = preliminary evaluations of metabolism in plasma, bile, and urine; format: in vivo; conditions: rats, dogs, and monkeys
CYP3A4 = CYP3A4 (Homo sapiens, UniProt P08684); experiment: loss of parent drug as catalyzed by CYPs; format: in vitro ADME; conditions: in vitro loss of parent drug
CYP3A4, sequence (P08684 whole entry): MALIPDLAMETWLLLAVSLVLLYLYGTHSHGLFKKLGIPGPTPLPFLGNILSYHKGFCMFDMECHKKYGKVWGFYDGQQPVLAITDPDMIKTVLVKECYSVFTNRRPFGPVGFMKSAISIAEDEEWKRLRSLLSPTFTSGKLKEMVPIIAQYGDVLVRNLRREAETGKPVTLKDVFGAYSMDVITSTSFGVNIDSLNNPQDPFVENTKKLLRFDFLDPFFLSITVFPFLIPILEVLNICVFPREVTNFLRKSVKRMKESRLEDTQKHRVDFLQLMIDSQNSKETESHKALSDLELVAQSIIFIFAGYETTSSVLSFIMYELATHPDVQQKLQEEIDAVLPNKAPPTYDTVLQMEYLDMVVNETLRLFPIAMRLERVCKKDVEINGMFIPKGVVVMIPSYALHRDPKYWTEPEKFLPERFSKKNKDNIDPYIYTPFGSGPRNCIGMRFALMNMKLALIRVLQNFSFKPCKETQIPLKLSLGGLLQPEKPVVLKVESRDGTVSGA

BTK (Homo sapiens, UniProt Q06187), sequence (Q06187 whole entry): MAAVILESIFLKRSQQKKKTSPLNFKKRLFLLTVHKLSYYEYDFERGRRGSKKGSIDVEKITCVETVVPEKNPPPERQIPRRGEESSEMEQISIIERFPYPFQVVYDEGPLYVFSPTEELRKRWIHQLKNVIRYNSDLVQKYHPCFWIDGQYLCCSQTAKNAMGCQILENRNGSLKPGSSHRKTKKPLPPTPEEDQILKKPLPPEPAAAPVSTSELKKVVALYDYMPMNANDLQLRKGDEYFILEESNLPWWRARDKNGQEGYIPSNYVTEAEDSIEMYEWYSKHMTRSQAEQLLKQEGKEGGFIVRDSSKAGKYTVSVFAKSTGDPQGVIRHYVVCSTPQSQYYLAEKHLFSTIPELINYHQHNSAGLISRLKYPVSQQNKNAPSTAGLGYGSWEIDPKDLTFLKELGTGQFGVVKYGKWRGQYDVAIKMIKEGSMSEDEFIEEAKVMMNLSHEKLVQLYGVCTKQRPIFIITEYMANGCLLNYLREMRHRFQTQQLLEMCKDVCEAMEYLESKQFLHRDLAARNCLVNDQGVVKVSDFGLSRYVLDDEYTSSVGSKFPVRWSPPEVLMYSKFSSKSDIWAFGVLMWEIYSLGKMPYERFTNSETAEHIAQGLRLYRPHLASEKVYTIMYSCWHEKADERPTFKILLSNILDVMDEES
T1 sequence (P35991 whole entry): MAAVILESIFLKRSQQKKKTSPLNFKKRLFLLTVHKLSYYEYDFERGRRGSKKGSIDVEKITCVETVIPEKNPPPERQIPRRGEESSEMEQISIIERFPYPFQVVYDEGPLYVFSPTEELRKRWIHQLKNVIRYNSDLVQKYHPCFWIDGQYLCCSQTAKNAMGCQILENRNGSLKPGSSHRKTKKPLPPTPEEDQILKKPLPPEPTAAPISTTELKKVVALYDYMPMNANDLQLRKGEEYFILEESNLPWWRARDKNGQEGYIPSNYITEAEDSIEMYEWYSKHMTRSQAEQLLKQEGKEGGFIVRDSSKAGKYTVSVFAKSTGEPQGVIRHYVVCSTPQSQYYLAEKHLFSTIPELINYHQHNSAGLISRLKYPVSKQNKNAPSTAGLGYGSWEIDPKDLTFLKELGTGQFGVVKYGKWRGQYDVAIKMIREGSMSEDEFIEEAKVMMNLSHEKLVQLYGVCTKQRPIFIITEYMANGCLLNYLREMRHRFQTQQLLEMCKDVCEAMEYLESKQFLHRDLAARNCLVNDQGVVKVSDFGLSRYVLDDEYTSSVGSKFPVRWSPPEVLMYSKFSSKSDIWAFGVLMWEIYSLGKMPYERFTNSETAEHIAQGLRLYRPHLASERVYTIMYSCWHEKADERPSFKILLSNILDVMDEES
EGFR, sequence (P00533 25-1210): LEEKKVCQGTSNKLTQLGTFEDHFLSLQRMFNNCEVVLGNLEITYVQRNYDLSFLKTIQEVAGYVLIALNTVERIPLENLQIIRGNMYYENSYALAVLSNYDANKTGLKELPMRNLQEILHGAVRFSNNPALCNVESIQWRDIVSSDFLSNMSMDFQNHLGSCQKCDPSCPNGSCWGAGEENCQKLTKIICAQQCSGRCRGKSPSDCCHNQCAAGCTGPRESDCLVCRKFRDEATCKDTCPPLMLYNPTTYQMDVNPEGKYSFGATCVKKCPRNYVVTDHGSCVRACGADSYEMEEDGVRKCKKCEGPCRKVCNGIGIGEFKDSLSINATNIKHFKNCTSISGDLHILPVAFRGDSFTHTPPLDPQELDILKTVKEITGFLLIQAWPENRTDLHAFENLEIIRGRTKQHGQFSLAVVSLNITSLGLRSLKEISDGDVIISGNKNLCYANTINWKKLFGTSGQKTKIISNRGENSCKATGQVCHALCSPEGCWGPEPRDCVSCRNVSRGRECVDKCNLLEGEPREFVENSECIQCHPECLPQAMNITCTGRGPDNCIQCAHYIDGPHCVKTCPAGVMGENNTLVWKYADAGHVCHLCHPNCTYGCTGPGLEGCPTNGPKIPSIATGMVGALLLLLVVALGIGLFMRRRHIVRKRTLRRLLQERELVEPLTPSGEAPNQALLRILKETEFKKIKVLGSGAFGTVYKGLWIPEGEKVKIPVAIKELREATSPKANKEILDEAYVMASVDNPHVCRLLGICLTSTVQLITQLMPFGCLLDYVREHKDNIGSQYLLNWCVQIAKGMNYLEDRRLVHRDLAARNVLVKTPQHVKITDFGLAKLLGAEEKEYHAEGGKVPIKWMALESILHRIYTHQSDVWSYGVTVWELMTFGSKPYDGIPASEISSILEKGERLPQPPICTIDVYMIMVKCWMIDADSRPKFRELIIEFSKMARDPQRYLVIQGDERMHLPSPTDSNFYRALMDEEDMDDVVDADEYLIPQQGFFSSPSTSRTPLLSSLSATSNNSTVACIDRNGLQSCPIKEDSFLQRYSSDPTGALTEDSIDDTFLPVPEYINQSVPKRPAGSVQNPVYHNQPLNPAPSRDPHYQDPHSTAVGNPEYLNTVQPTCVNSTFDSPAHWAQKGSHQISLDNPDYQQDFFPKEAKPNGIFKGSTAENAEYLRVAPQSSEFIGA

C=CC(=O)Nc1cccc(Nc2nc(Nc3ccc(OCCOC)cc3)ncc2F)c1 [Formula XXVII (CC-292), N-(3-((5-fluoro-2-((4-(2-methoxyethoxy)phenyl)amino)pyrimidin-4-yl)amino)phenyl)acrylamide, reference compound]
effect on human platelet-mediated thrombus formation [1]: effect similar to Formula (XX-A) (ibrutinib)

C=CC(=O)N1CCC[C@@H](n2nc(-c3ccc(Oc4ccccc4)cc3)c3c(N)ncnc32)C1 [ibrutinib]
maximum tolerated dose (MTD) [2]: No maximum tolerated dose
EC50 (B cell receptor; B-cell): 0.0061 µM

C=CC(=O)Nc1cccc(Nc2nc(Nc3ccc(OCCOC)cc3)ncc2F)c1 [CC-292]
EC50 (B cell receptor): 0.121 µM

C=CC(=O)N1CCC[C@@H](n2nc(-c3ccc(Oc4ccccc4)cc3)c3c(N)ncnc32)C1 [Formula (XX-A), reference compound]
IC50 ([3]; Platelet): 0.13 µM

CC#CC(=O)N1CCC[C@H]1c1nc(-c2ccc(C(=O)Nc3ccccn3)cc2)c2c(N)nccn12 [Formula (XVIII), (S)-4-(8-amino-3-(1-(but-2-ynoyl)pyrrolidin-2-yl)imidazo[1,5-a]pyrazin-1-yl)-N-(pyridin-2-yl)benzamide]
CCL2 levels (CCL2 [4]): decrease
plasma CXCL12 levels (CXCL12 [5]): significant decrease
irreversible occupancy of total BTK in MDSCs (BTK [6]): Complete BTK occupancy
glutathione binding and depletion [7]: binds to glutathione but does not deplete glutathione
respiratory function [8]: no treatment-related adverse effects
body temperature, cardiovascular, or ECG (including QT interval) parameters [9]: no meaningful changes
potential for clinical drug-drug interactions via CYP enzymes (CYP enzymes): very unlikely to cause clinical drug-drug interactions
PD (CLL [10]; 100 mg BID (N = 3)): 0 (0) n (%)
PR (CLL [10]; 100 mg BID (N = 3)): 3 (100) n (%)
PR + L (CLL [10]; 100 mg BID (N = 3)): 0 (0) n (%)
PD (CLL [10]; 100 mg QD (N = 8)): 0 (0) n (%)
PR (CLL [10]; 100 mg QD (N = 8)): 7 (88) n (%)
PR + L (CLL [10]; 100 mg QD (N = 8)): 0 (0) n (%)
PD (CLL [10]; 175 mg QD (N = 8)): 0 (0) n (%)
PR (CLL [10]; 175 mg QD (N = 8)): 5 (63) n (%)
PR + L (CLL [10]; 175 mg QD (N = 8)): 3 (37) n (%)
PD (CLL [10]; 250 mg QD (N = 7)): 0 (0) n (%)
PR (CLL [10]; 250 mg QD (N = 7)): 5 (71) n (%)
PR + L (CLL [10]; 250 mg QD (N = 7)): 2 (29) n (%)
PD (CLL [10]; 400 mg QD (N = 5)): 0 (0) n (%)
PR (CLL [10]; 400 mg QD (N = 5)): 2 (40) n (%)
PR + L (CLL [10]; 400 mg QD (N = 5)): 2 (40) n (%)
PD (CLL [10]; All Cohorts (N = 31)): 0 (0) n (%)
PR (CLL [10]; All Cohorts (N = 31)): 22 (71) n (%)
PR + L (CLL [10]; All Cohorts (N = 31)): 7 (23) n (%)
treatment time at which median % change in SPD achieved the same status (CLL [10]; CLL patients, present study): 7 months
Headache (treatment-related adverse event) (CLL [10]; Grade 1/2, All (N = 44)): 7 (16) n (%)
Diarrhea (treatment-related adverse event) (CLL [10]; Grade 1, All (N = 44)): 4 (9) n (%)
Increased tendency to bruise (treatment-related adverse event) (CLL [10]; Grade 1, All (N = 44)): 6 (14) n (%)
Petechiae (treatment-related adverse event) (CLL [10]; Grade 1, All (N = 44)): 3 (7) n (%)
grade of AEs observed (CLL [10]; human, in vivo): only grade 1 AEs
lymphocytosis (CLL [10]; human, in vivo): A lack of lymphocytosis
dose-limiting toxicities (DLTs) (CLL [10]; relapsed/refractory CLL): No DLTs
treatment-related serious adverse events (SAEs) (CLL [10]; relapsed/refractory CLL): No treatment-related serious adverse events
progression in patients with the 17p deletion (CLL [10]; to date): no 17p patients have progressed
levels in the brain and CSF samples [11]: low but detectable levels
EC50 (B cell receptor; B-cell): 0.0082 µM
effect on human platelet-mediated thrombus formation [1]: no significant effect
neurobehavioral effects or body temperature, functional observation battery [12]: no adverse effects
unique human metabolite (hepatocytes; hepatocytes): No unique human metabolite
metabolites in hepatocytes (hepatocytes; mouse, rat, dog, rabbit, monkey, and human hepatocytes): two mono-oxidized metabolites and a glutathione conjugate
apoptosis (CLL [13]): increased apoptosis
inhibition of in vitro EGFR phosphorylation (EGFR): no inhibition
plasma CCL2 levels (CCL2 [14]): significant decrease
number of tumors (NSCLC (KrasLA2) tumors): fewer overall tumors
tumor volumes versus vehicle (NSCLC (KrasLA2) tumors): significant decrease
complete responses (CR) (canine B cell lymphoma; Arm 1: 21 dogs, Arm 2: 10 dogs): not observed
dogs with shrinkage of target lesions >20% (canine B cell lymphoma; Arm 1: 21 dogs, Arm 2: 10 dogs): 8 dogs
Median time to best response (canine B cell lymphoma; dog, in vivo): 7 days
best tumor responses, reduction in the sum of target lesions (canine B cell lymphoma; dog, in vivo): 45-49%
activity in binding assays with 80 known pharmacologic targets [15]: significant activity only against the A3 adenosine receptor
inhibition of GPVI platelet aggregation (human platelets): does not
CXCL12 levels (CXCL12 [16]): decrease
absolute lymphocyte count (ALC) (CLL [17]; relative to ibrutinib (Byrd et al. 2013)): much smaller relative increase and much faster decrease
sum of the product of greatest diameters (SPD) (CLL [17]; versus ibrutinib): decreases more rapidly
in vivo potency, inhibition of expression of activation markers CD69 and CD86 [18]: more potent at inhibiting expression of activation makers than ibrutinib
BTK target occupancy (BTK [19]): improved BTK target occupancy
MTD (CLL [20]): not reached
metabolic processes in plasma, bile, and urine [21]: oxidation, glutathione binding, and hydrolysis
CYP responsible for metabolism (CYP3A4): metabolized by CYP3A4

CC#CC(=O)N1CCC[C@H]1c1nc(-c2ccc(C(=O)Nc3ccccn3)cc2)c2c(N)nccn12 [Formula XVIII]
IC50 [3]: 1.15 µM
